According to PubChem BioAssay (NCI):
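Values below derive from 48-hour exposures of cells grown in 96-well plates, with endpoints linearly interpolated between the two concentrations bracketing the appropriate inhibition level. TGI: concentration producing complete growth inhibition.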

Columns and labels:
Test in all cases: growth of human tumour cells (NCI), 48 h
A498 renal = test system: A498 renal
A549 NSCLC = test system: A549 NSCLC
ACHN renal = test system: ACHN renal
CCRF-CEM leukemia = test system: CCRF-CEM leukemia
COLO 205 colon = test system: COLO 205 colon
DLD-1 colon = test system: DLD-1 colon
DMS 114 small cell lung = test system: DMS 114 small cell lung
DMS 273 small cell lung = test system: DMS 273 small cell lung
EKVX NSCLC = test system: EKVX NSCLC
HCC-2998 colon = test system: HCC-2998 colon
HCT-116 colon = test system: HCT-116 colon
HCT-15 colon = test system: HCT-15 colon
HL-60(TB) leukemia = test system: HL-60(TB) leukemia
HOP-18 NSCLC = test system: HOP-18 NSCLC
HOP-62 NSCLC = test system: HOP-62 NSCLC
HOP-92 NSCLC = test system: HOP-92 NSCLC
HT29 colon = test system: HT29 colon
IGROV1 ovarian = test system: IGROV1 ovarian
K-562 leukemia = test system: K-562 leukemia
KM12 colon = test system: KM12 colon
KM20L2 colon = test system: KM20L2 colon
LOX IMVI melanoma = test system: LOX IMVI melanoma
M14 melanoma = test system: M14 melanoma
MOLT-4 leukemia = test system: MOLT-4 leukemia
NCI-H226 lung = test system: NCI-H226 lung
NCI-H23 lung = test system: NCI-H23 lung
NCI-H460 lung = test system: NCI-H460 lung
NCI-H522 lung = test system: NCI-H522 lung
OVCAR-3 ovarian = test system: OVCAR-3 ovarian
OVCAR-4 ovarian = test system: OVCAR-4 ovarian
OVCAR-5 ovarian = test system: OVCAR-5 ovarian
OVCAR-8 ovarian = test system: OVCAR-8 ovarian
RPMI-8226 leukemia = test system: RPMI-8226 leukemia
RXF 393 renal = test system: RXF 393 renal
SF-295 CNS = test system: SF-295 CNS
SF-539 CNS = test system: SF-539 CNS
SK-MEL-2 melanoma = test system: SK-MEL-2 melanoma
SK-MEL-28 melanoma = test system: SK-MEL-28 melanoma
SK-MEL-5 melanoma = test system: SK-MEL-5 melanoma
SK-OV-3 ovarian = test system: SK-OV-3 ovarian
SN12C renal = test system: SN12C renal
SNB-19 CNS = test system: SNB-19 CNS
SNB-75 CNS = test system: SNB-75 CNS
SR leukemia = test system: SR leukemia
SW-620 colon = test system: SW-620 colon
TK-10 renal = test system: TK-10 renal
U251 CNS = test system: U251 CNS
UACC-257 melanoma = test system: UACC-257 melanoma
UACC-62 melanoma = test system: UACC-62 melanoma
UO-31 renal = test system: UO-31 renal
XF 498 CNS = test system: XF 498 CNS
786-0 renal = test system: 786-0 renal
CAKI-1 renal = test system: CAKI-1 renal
LXFL 529 NSCLC = test system: LXFL 529 NSCLC
M19-MEL melanoma = test system: M19-MEL melanoma
MALME-3M melanoma = test system: MALME-3M melanoma
SF-268 CNS = test system: SF-268 CNS
SNB-78 CNS = test system: SNB-78 CNS

In the case of `C/C=C/CC(S(=O)(=O)c1ccccc1)S(=O)(=O)c1ccccc1`, the TGI (A498 renal) is reported as greater than 100 µM, the TGI (A549 NSCLC) is reported as greater than 100 µM and the TGI (ACHN renal) is reported as greater than 100 µM. It also gave a TGI (CCRF-CEM leukemia) greater than 100 µM, a TGI (COLO 205 colon) greater than 100 µM and a TGI (DLD-1 colon) greater than 100 µM. It also gave a TGI (DMS 114 small cell lung) of 81.8 µM, a TGI (DMS 273 small cell lung) greater than 100 µM and a TGI (EKVX NSCLC) greater than 100 µM. For the same molecule, the TGI (HCC-2998 colon) was greater than 100 µM, the TGI (HCT-116 colon) was greater than 100 µM and the TGI (HCT-15 colon) was greater than 100 µM. For the same molecule, the TGI (HL-60(TB) leukemia) was greater than 100 µM, the TGI (HOP-18 NSCLC) was greater than 100 µM and the TGI (HOP-62 NSCLC) was greater than 100 µM. It also gave a TGI (HOP-92 NSCLC) greater than 100 µM, a TGI (HT29 colon) greater than 100 µM and a TGI (IGROV1 ovarian) greater than 100 µM. The TGI (K-562 leukemia) was greater than 100 µM, the TGI (KM12 colon) was greater than 100 µM and the TGI (KM20L2 colon) was greater than 100 µM. The TGI (LOX IMVI melanoma) was greater than 100 µM, the TGI (M14 melanoma) was greater than 100 µM and the TGI (MOLT-4 leukemia) was greater than 100 µM. The TGI (NCI-H226 lung) was greater than 100 µM, the TGI (NCI-H23 lung) was greater than 100 µM and the TGI (NCI-H460 lung) was greater than 100 µM. The TGI (NCI-H522 lung) was greater than 100 µM, the TGI (OVCAR-3 ovarian) was greater than 100 µM and the TGI (OVCAR-4 ovarian) was greater than 100 µM. For the same molecule, the TGI (OVCAR-5 ovarian) was greater than 100 µM, the TGI (OVCAR-8 ovarian) was greater than 100 µM and the TGI (RPMI-8226 leukemia) was greater than 100 µM. For the same molecule, the TGI (RXF 393 renal) was greater than 100 µM, the TGI (SF-295 CNS) was greater than 100 µM and the TGI (SF-539 CNS) was greater than 100 µM. For the same molecule, the TGI (SK-MEL-2 melanoma) was greater than 100 µM, the TGI (SK-MEL-28 melanoma) was greater than 100 µM and the TGI (SK-MEL-5 melanoma) was greater than 100 µM. It also gave a TGI (SK-OV-3 ovarian) greater than 100 µM, a TGI (SN12C renal) greater than 100 µM and a TGI (SNB-19 CNS) greater than 100 µM. For the same molecule, the TGI (SNB-75 CNS) was greater than 100 µM, the TGI (SR leukemia) was greater than 100 µM and the TGI (SW-620 colon) was greater than 100 µM. It also gave a TGI (TK-10 renal) greater than 100 µM, a TGI (U251 CNS) greater than 100 µM and a TGI (UACC-257 melanoma) greater than 100 µM. It also gave a TGI (UACC-62 melanoma) greater than 100 µM, a TGI (UO-31 renal) greater than 100 µM and a TGI (XF 498 CNS) greater than 100 µM.
`Nc1ccc(C(=O)N/C(=C\c2cccc([N+](=O)[O-])c2)c2nc3ccccc3[nH]2)cc1` showed a TGI (786-0 renal) greater than 100 µM, a TGI (A498 renal) greater than 100 µM and a TGI (A549 NSCLC) greater than 100 µM. It also gave a TGI (ACHN renal) greater than 100 µM, a TGI (CAKI-1 renal) greater than 100 µM and a TGI (CCRF-CEM leukemia) greater than 100 µM. The TGI (COLO 205 colon) was greater than 100 µM, the TGI (DLD-1 colon) was greater than 100 µM and the TGI (DMS 114 small cell lung) was greater than 100 µM. The TGI (DMS 273 small cell lung) was greater than 100 µM, the TGI (EKVX NSCLC) was greater than 100 µM and the TGI (HCC-2998 colon) was greater than 100 µM. The TGI (HCT-116 colon) was greater than 100 µM, the TGI (HCT-15 colon) was greater than 100 µM and the TGI (HL-60(TB) leukemia) was greater than 100 µM. It also gave a TGI (HOP-62 NSCLC) of 67 µM, a TGI (HOP-92 NSCLC) greater than 66.4 µM and a TGI (HT29 colon) greater than 100 µM. The TGI (IGROV1 ovarian) was greater than 100 µM, the TGI (K-562 leukemia) was greater than 100 µM and the TGI (KM12 colon) was greater than 100 µM. It also gave a TGI (KM20L2 colon) greater than 100 µM, a TGI (LOX IMVI melanoma) greater than 100 µM and a TGI (LXFL 529 NSCLC) greater than 100 µM. It also gave a TGI (M14 melanoma) greater than 100 µM, a TGI (M19-MEL melanoma) greater than 100 µM and a TGI (MALME-3M melanoma) greater than 100 µM. It also gave a TGI (MOLT-4 leukemia) greater than 100 µM, a TGI (NCI-H226 lung) greater than 100 µM and a TGI (NCI-H23 lung) greater than 100 µM. It also gave a TGI (NCI-H460 lung) greater than 100 µM, a TGI (NCI-H522 lung) of 98.8 µM and a TGI (OVCAR-3 ovarian) greater than 100 µM. For the same molecule, the TGI (OVCAR-4 ovarian) was greater than 83.3 µM, the TGI (OVCAR-5 ovarian) was greater than 100 µM and the TGI (OVCAR-8 ovarian) was greater than 100 µM. It also gave a TGI (RPMI-8226 leukemia) greater than 100 µM, a TGI (RXF 393 renal) of 59.4 µM and a TGI (SF-268 CNS) greater than 100 µM. It also gave a TGI (SF-295 CNS) greater than 100 µM, a TGI (SF-539 CNS) greater than 100 µM and a TGI (SK-MEL-2 melanoma) greater than 100 µM. It also gave a TGI (SK-MEL-28 melanoma) greater than 100 µM, a TGI (SK-MEL-5 melanoma) greater than 100 µM and a TGI (SK-OV-3 ovarian) greater than 82.7 µM. The TGI (SN12C renal) was greater than 100 µM, the TGI (SNB-19 CNS) was greater than 100 µM and the TGI (SNB-75 CNS) was 69.4 µM. The TGI (SNB-78 CNS) was greater than 100 µM, the TGI (SR leukemia) was greater than 100 µM and the TGI (SW-620 colon) was greater than 100 µM. The TGI (TK-10 renal) was greater than 100 µM, the TGI (U251 CNS) was greater than 100 µM and the TGI (UACC-62 melanoma) was greater than 100 µM. For the same molecule, the TGI (UO-31 renal) was 63.8 µM and the TGI (XF 498 CNS) was 59.8 µM.
